Legend:
[1] = logP determination by HPLC on reversed-phase column (EEC Directive 79/831 annex V.A8); type: physicochemical
Procedure: Calibration was carried out using unbranched alkan-2-ones (having 3 to 16 carbon atoms) with known logP values (determination of logP values by the retention times using linear interpolation between two successive alkanone).

[2] = tested on: green peach aphid (Myzus persicae); experiment: Myzus test (MYZUPE spray treatment); type: in vivo; conditions: 500 g/ha, spray treatment of Chinese cabbage disks, 100% = all aphids killed
Procedure: Myzus Test (MYZUPE Spray Treatment)
To produce a suitable preparation of active compound, 1 part by weight of active compound is mixed with the stated amounts of solvents and emulsifier, and the concentrate is diluted with emulsifier-containing water to the desired concentration.
Disks of Chinese cabbage (Brassica pekinensis) which are infested by all stages of green peach aphid (Myzus persicae) are sprayed with a preparation of active compound of the desired concentration.
(§1) After the desired period of time, the effect in % is determined. 100% means that all aphids have been killed; 0% means that none of the aphids have been killed.

Myzus persicae = Myzus persicae (MYZUPE U); type: in vivo; conditions: 30 ppm, ingestion, 100% = all aphids killed
Procedure: Myzus Persicae (MYZUPE U)
To produce a suitable preparation of active compound, the active compound is mixed with the stated amounts of solvent, and the concentrate is diluted with stained water to the desired concentration.
The Myzus persicae are provided with a preparation of active compound of the desired concentration for ingestion.
as §1

[3] = tested on: cotton aphid (Aphis gossypii); experiment: Aphis gossypii test (APHIGO); type: in vivo; conditions: 100 ppm, cotton leaves dipped, 100% = all aphids killed
Procedure: Aphis Gossypii Test (APHIGO)
To produce a suitable preparation of active compound, 1 part by weight of active compound is mixed with the stated amounts of solvent and emulsifier, and the concentrate is diluted with emulsifier-containing water to the desired concentration.
Cotton leaves (Gossypium hirsutum) which are heavily infested by the cotton aphid (Aphis gossypii) are treated by being dipped into the preparation of active compound of the desired concentration.
After the desired period of time, the kill in % is determined. 100% means that all aphids have been killed; 0% means that none of the aphids have been killed.

[4] = reversed-phase HPLC column, in the preparation example, pH range not marked
[5] = reversed-phase C18 HPLC column, HPLC, reversed-phase C 18, 43° C., acidic range (pH 2.3), marked a)

Structure (SMILES) | chromatographic logP [1, 4] | chromatographic logP [1, 5] | effect in % (% 5 d) [2] | effect in % (% 6-7 d) (Myzus persicae) | kill in % (% 6 d) [3]
CC#CCOc1cc(-c2ccsc2)ncn1 [Example 1, 4-(2-butyn-1-yl-oxy)-6-(3-thienyl)-pyrimidine] | 2.84 | – | – | – | –
CC#CCOc1cc(-n2cccn2)ncn1 [Example 8] | – | 2.55 | 90% | – | –
CC#CCOc1cc(-n2ccnc2)ncn1 [Example 12] | – | 1 | – | 100% | –
CC#CCOc1cc(-c2cscc2C)ncn1 [Example 25] | – | 3.26 | 80% | – | 80%
Clc1cc(-c2ccsc2)ncn1 [II-1, 4-chloro-6-(3-thienyl)pyrimidine] | 2.31 | – | – | – | –

Further lines, with some results ahead:

chromatographic logP [1, 4] | chromatographic logP [1, 5] | Structure (SMILES) | effect in % (% 5 d) [2] | effect in % (% 6-7 d) (Myzus persicae) | kill in % (% 6 d) [3]
3.65 | – | CC#CCOc1cc(-n2cc(Cl)cn2)ncn1 [Example 2, 4-butynyloxy-6-(4-chloropyrazol-1-yl)pyrimidine] | – | – | –
– | 2.31 | CC#CCOc1cc(-c2ccccn2)ncn1 [Example 3] | 80% | – | –
– | 2.95 | CC#CCOc1cc(-c2cccs2)ncn1 [Example 6] | 90% | – | –
